Source: patent publication US20150072416A1, “METABOLITE FOR IMPROVING PRODUCTION, MAINTENANCE AND PROLIFERATION OF PLURIPOTENT STEM CELLS, COMPOSITION COMPRISING THE SAME, AND METHOD OF CULTURING PLURIPOTENT STEM CELL USING THE SAME” (KOREA RESEARCH INSTITUTE OF BIOSCIENCE AND BIOTENOLOGY, priority 2012, published 2015)

Legend:
Assay type in all cases: cell-based
[1] = test system: human fibroblasts transfected with reprogramming factor OSKM; test: Senescence-associated beta-galactosidase staining and senescence-associated DNA damage staining during reprogramming; settings: for decrease in number of senescent cells: 10 mM
Procedure: On day 26 of induction of reprogramming, the cells were fixed with a fixation solution at room temperature for 10 minutes, and then stained with a β-galactosidase solution at room temperature for 15 minutes. Next, the DNA was stained with DAPI (4′,6-diamidino-2-phenylindole) for 5 minutes, and then the cells were imaged by phase-contrast and fluorescence microscopy. The number of cells having senescence (green) damaged DNA (blue combined points) was counted and quantified relative to the number of normal cells.

[2] = test system: human fibroblasts transfected with reprogramming factor OSKM; test: Measurement of reactive oxygen species during reprogramming; settings: 1 mM, day 19 of induction of reprogramming
Procedure: On day 19 of induction of reprogramming, the cells were dissociated into single cells by trypsin, and then stained with 5 μM of CM-H2DCFDA (2,7-dichlorodihydrofluresceindiacetat) at 37° C. for 30 minutes. Cells treated with 100 μM of hydrogen peroxide (H2O2) were used as a positive control group for the formation of reactive oxygen species, and the degree of fluorescence staining was measured by flow cytometry and quantified.

[3] = test system: human embryonic stem cells and human induced pluripotent stem cells; test: Maintenance of undifferentiated state of pluripotent stem cells (morphology, AP staining); settings: for undifferentiated state in UM: 0.1 mM nicotinamide added to UM
From the text: Human embryonic stem cells (hESC) H9 (NIH Code, WA09; WiCell Research Institute, Madison, Wis.) and H1 (NIH Code, WA01; WiCell Research Institute) and induced pluripotent stem cells (hiPSC) were each cultured with hESC culture medium (unconditioned medium; UM) or MEF-CM (conditioned medium) on γ-irradiated MEFs (mouse embryonic fibroblasts) or on plates coated with Matrigel (BD Biosciences, Franklin Lakes, N.J.). The cultured human embryonic stem cells and induced pluripotent stem cells were treated with collagenase IV (1 mg/ml; Invitrogen) or dispase (1 mg/ml; Invitrogen) once a week and subcultured. MEF-CM was prepared as γ-irradiated MEF according to a known method (Xu C. Nat Biotechnol 19, 971-974) and supplemented with 8 ng/ml of bFGF. UM contained 80% DMEM/F12, 20% knockout serum replacement (KSR, Invitrogen, Carlsbad, Calif.), 1% non-essential amino acids (NEAA, Invitrogen), 1 mM L-glutamine (Invitrogen), 0.1 mM β-mercaptoethanol (Sigma, St. Louis, Mo.) and 6 ng/ml bFGF (basic fibroblast growth factor, Invitrogen). Particularly, for culture in the absence of feeder cells and serum, human embryonic stem cells and human induced pluripotent stem cells were cultured in mTeSR1 medium (StemCell Technologies). Human newborn foreskin fibroblasts (hFF, ATCC, catalog number CRL-2097; American Type Culture Collection, Manassas, Va.) were cultured in a DMEM medium containing 10% FBS (fetal bovine serum, Invitrogen), 1% non-essential amino acids, 1 mM L-glutamine and 0.1 mM β-mercaptoethanol.
AP staining was performed using a commercial AP kit (Sigma) according to the manufacturer's instruction. Images of AP-positive cells were recorded with HP Scanjet G4010. Also, bight field images were obtained with an Olympus microscope (IX51, Olympus, Japan).
In order to verify the effect of nicotinamide on the maintenance of undifferentiated state of pluripotent stem cells, the present inventors performed the following experiment. While human embryonic stem cells and human pluripotent stem cells were cultured in MEF-CM or UM on feeder-free Matrigel, various NAD precursors including nicotinamide were added to the stem cells, and then the effects of the NAD precursors on the stem cells were verified by examining the morphological change and the expression pattern of AP that is a human embryonic stem cell-specific marker.
In addition, in order to examine the effects of nicotinamide at various concentrations, various concentrations of nicotinamide were added to UM, and the degrees of maintenance of undifferentiation of human embryonic stem cells and human induced pluripotent stem cells, which are pluripotent stem cells, were examined. […] However, it was shown that the addition of a low concentration (<0.01 mM) or high concentration (>5 mM) of nicotinamide could not maintain the undifferentiated state of pluripotent stem cells (FIG. 30).
The effect of nicotinamide effective for maintaining the undifferentiated state of human embryonic stem cells and human induced pluripotent stem cells, which are pluripotent stem cells, was verified under various conditions. […] In order to eliminate the use of feeder cell-derived factors and animal serum and ensure culture conditions including a medium (CDM) whose components are known, various concentrations of nicotinamide were added to mTeSR1 (CDM) without feeder cells, and the effects thereof were examined. As a result, it could be seen that the addition of 0.1 mM of nicotinamide was effective for maintaining the undifferentiated state of various human embryonic stem cell lines (H1 and H9) and the human induced pluripotent stem cell line (hiPS) (FIG. 31).

[4] = test system: human fibroblasts and human fibroblasts transfected with reprogramming factors; test: Cell growth and proliferation during reprogramming (viable cell count, BrdU, live-cell imaging)
Procedure: Human fibroblasts were seeded in a 6-well culture dish at a density of about 1×10^5 cells per well. The seeded cells were cultured for 26 days under the indicated culture conditions. To count the cell number, the cells were washed with PBS and treated with trypsin. The cell suspension was mixed with 0.4% (wt/vol) trypan blue solution, and the number of viable cells was counted on day 19 and day 26 using a hemocytometer (FIG. 10). Each experiment was performed in triplicate. Specifically, for BrdU incorporation, cells were incubated in the presence of 30 μM BrdU at 37° C. for 1 hour. After washing with PBS, the cells were fixed with 4% paraformaldehyde for 15 minutes and reacted in 1N HCl at room temperature for 15 minutes. The sample was washed and reacted with 0.1 M sodium tetraborate for 15 minutes. After washing, the cells were reacted with anti-BrdU antibody in 3% BSA-containing PBS for 1 hour, and then reacted with FITC-conjugated secondary antibody for 30 minutes. […] On day 12 of induction of reprogramming, virus expressing the cell-cycle regulators Geminin-GFP (green) and Cdt1-RFP (red) was introduced into the cells for 2 hours while slowly shaking the cells, and then an accelerator was added to the cells, followed by culture for 1 hour. The medium was replaced with fresh medium, and the cells were further cultured overnight and imaged with a fluorescence microscope. The images were obtained for at least 4 sections per sample, and the number of resting-stage cells (red) and dividing cells (green) was counted. The ratio of dividing cells was quantified by the green/red ratio.

In the case of NC(=O)c1cccnc1 [nicotinamide], the “decrease in cellular senescence-associated DNA damage” value ([1]; 1 mM, compared to control group) is reported as 83.0±0.5%, the “decrease in ratio of cells stained with senescence-associated beta-galactosidase” value ([1]; 1 mM, day 19, compared to untreated group) is reported as 88.1±1.4% and the “decrease in ratio of cells stained with senescence-associated beta-galactosidase” value ([1]; 1 mM, day 26, compared to untreated group) is reported as 76.9±2.5%. For the same compound, the “decrease in number of senescent cells” value ([1]; day 19, compared to control group) was 76.1±1.4%, the “decrease in number of senescent cells” value ([1]; day 21, compared to control group) was 30.8±9.0% and the “formation of reactive oxygen species” value [2] was “inhibited”. For the same compound, the “number of AP-positive cells when feeder cells were used” value ([3]; 0.1 mM) was “most increased”, the “undifferentiated state in UM” value [3] was “maintained in an undifferentiated state” and the “undifferentiated state in UM” value ([3]; listed as Nam) was “most effectively maintained”. The “maintaining the undifferentiated state in mTeSR1 (CDM) without feeder cells” value ([3]; 0.1 mM, H1, H9 and hiPS) was “effective”, the “induction of differentiation in UM, among NAD+ precursors and NAD+” value ([3]; H9 in UM treated with nicotinamide (FIG. 29)) was “most effectively inhibited” and the “high concentration that could not maintain the undifferentiated state” value ([3]; UM) was > 5 mM. The “low concentration that could not maintain the undifferentiated state” value ([3]; UM) was < 0.01 mM, the “morphology of hESCs cultured in UM, in comparison with other NAD precursors” value ([3]; UM containing nicotinamide (1 mM), 6 days, feeder-free Matrigel) was “showed the morphology of undifferentiated human embryonic stem cells” and the “nicotinamide concentration in UM conserving undifferentiated morphology and positive AP expression” value ([3]; hESCs and hiPSCs cultured in UM) was 0.1-1 mM. For the same compound, the “ratio of proliferating cells (live cell imaging)” value ([4]; 1 mM, day 12 of induction of reprogramming) was “increased”, the “number of healthy viable cells” value ([4]; 0.1, 1 and 10 mM, days 19 and 26, concentration-dependent) was “increased” and the “number of actually dividing cells incorporated with BrdU” value ([4]; 0.1-1 mM, day 19 of induction of reprogramming) was “significantly increased”. The “optimal nicotinamide concentration for promoting cell growth” value ([4]; culture process for inducing reprogramming) was 1 mM.
